Reference: ChEMBL document CHEMBL4627350, “Drug repurposing and rediscovery: Design, synthesis and preliminary biological evaluation of 1-arylamino-3-aryloxypropan-2-ols as anti-melanoma agents” (Bioorg Med Chem, 2020)
Each block holds one compound with its values, some of them ahead of it. Calls of active or inactive are those of the source. The rule behind the calls is not given here.

Key:
A-375 [1] = experiment: Antiproliferative activity against human A375 cells assessed as cell growth inhibition incubated for 48 hrs by MTT assay; assay type: functional, cell-based; details: A-375, 48 h
SK-MEL-28 [2] = experiment: Antiproliferative activity against human SK-MEL-28 cells assessed as cell growth inhibition incubated for 48 hrs by MTT assay; assay type: functional, cell-based; details: SK-MEL-28, 48 h
SK-MEL-5 [3] = experiment: Antiproliferative activity against human SK-MEL-5 cells assessed as cell growth inhibition incubated for 48 hrs by MTT assay; assay type: functional, cell-based; details: SK-MEL-5, 48 h
SK-MEL-5 [4] = experiment: Potency index, ratio of carvedilol IC50 to test compound IC50 for antiproliferative activity against human SK-MEL-5 cells; assay type: functional
SK-MEL-28 [5] = experiment: Antimigratory activity against human SK-MEL-28 cells assessed as reduction in cell migration at 1 uM measured after 48 hrs by wound healing assay; assay type: functional, cell-based
A-375 [6] = experiment: Potency index, ratio of carvedilol IC50 to test compound IC50 for antiproliferative activity against human A375 cells; assay type: functional
SK-MEL-28 [7] = experiment: Potency index, ratio of carvedilol IC50 to test compound IC50 for antiproliferative activity against human SK-MEL-28 cells; assay type: functional
SK-MEL-28 [8] = experiment: Cell cycle arrest in human SK-MEL-28 cells assessed as accumulation at G2/M phase after 24 hrs by […] dye staining based fluorescence assay; assay type: functional
SK-MEL-28 [9] = experiment: Inhibition of colony formation in human SK-MEL-28 cells at 2 uM supplemented with fresh medium containing compound every 72 hrs for 2 weeks by crystal violet staining based assay; assay type: functional
Tubulin (Homo sapiens) = Tubulin (Homo sapiens) (UniProt P68371+Q9H4B7+P0DPH7+P68366+Q13509+Q71U36+P04350+Q3ZCM7+P07437+P68363+Q9BQE3+Q6PEY2+Q13885+Q9BVA1+Q9BUF5); experiment: Inhibition of tubulin in human SK-MEL-28 cells assessed as disruption of microtubule network at 1 to 2 uM by Alexa Fluor 488 and DAPI staining based fluorescence microscopic method; assay type: cell-based
SK-MEL-28 [10] = experiment: Induction of apoptosis in human SK-MEL-28 cells incubated for 24 hrs by Annexin V-FITC/propidium iodide staining based flow cytometric analysis; assay type: functional, cell-based
SK-MEL-28 [11] = experiment: Antiproliferative activity against human SK-MEL-28 cells assessed as cell growth inhibition at 100 uM measured after 48 hrs by MTT assay relative to control; assay type: functional; details: SK-MEL-28, 48 h
SK-MEL-5 [12] = experiment: Antiproliferative activity against human SK-MEL-5 cells assessed as cell growth inhibition at 100 uM incubated for 48 hrs by MTT assay relative to control; assay type: functional; details: SK-MEL-5, 48 h
A-375 [13] = experiment: Antiproliferative activity against human A375 cells assessed as cell growth inhibition at 100 uM measured after 48 hrs by MTT assay relative to control; assay type: functional; details: A-375, 48 h
SK-MEL-28 [14] = experiment: Inhibition of colony formation in human SK-MEL-28 cells at 5 to 100 uM supplemented with fresh medium containing compound every 72 hrs for 2 weeks by crystal violet staining based assay; assay type: functional, cell-based

Compound: OC(COc1cccc2[nH]c3ccccc3c12)CN1CCN(c2ccccn2)CC1 (racemic)
- IC50 (A-375 [1]): 31.8 µM
- IC50 (SK-MEL-28 [2]): 24.7 µM
- IC50 (SK-MEL-5 [3]): 26.1 µM

Compound: OC(COc1ccc(-c2ccccc2)cc1)CN1CCN(c2ccccn2)CC1 (racemic)
- IC50 (A-375 [1]): 28.2 µM
- IC50 (SK-MEL-28 [2]): 25 µM
- IC50 (SK-MEL-5 [3]): 21.2 µM

Compound: CC(C)NCC(O)COc1ccc(CC(N)=O)cc1 (configuration not stated) [ATENOLOL]
- IC50 (A-375 [1]): > 100 µM
- IC50 (SK-MEL-28 [2]): > 100 µM
- IC50 (SK-MEL-5 [3]): > 100 µM
- inhibition at 100 µM (SK-MEL-28 [11]): 6.9%
- inhibition at 100 µM (SK-MEL-5 [12]): 5.2%
- inhibition at 100 µM (A-375 [13]): 8.6%

Compound: CC(C)NCC(O)COc1ccc(COCCOC(C)C)cc1 (configuration not stated) [BISOPROLOL]
- IC50 (A-375 [1]): > 100 µM
- IC50 (SK-MEL-28 [2]): > 100 µM
- IC50 (SK-MEL-5 [3]): > 100 µM
- inhibition at 100 µM (SK-MEL-28 [11]): 6.4%
- inhibition at 100 µM (SK-MEL-5 [12]): 14.8%
- inhibition at 100 µM (A-375 [13]): 28.3%

Compound: CC(C)NCC(O)COc1cccc2[nH]c3ccccc3c12 (configuration not stated) [CARAZOLOL]
- IC50 (A-375 [1]): 35.4 µM
- IC50 (SK-MEL-28 [2]): 31.3 µM
- IC50 (SK-MEL-5 [3]): 33.7 µM

Compound: COC(=O)CCc1ccc(OCC(O)CNC(C)C)cc1 (configuration not stated) [ESMOLOL]
- IC50 (A-375 [1]): > 100 µM
- IC50 (SK-MEL-28 [2]): > 100 µM
- IC50 (SK-MEL-5 [3]): > 100 µM
- inhibition at 100 µM (SK-MEL-28 [11]): 25.8%
- inhibition at 100 µM (SK-MEL-5 [12]): 31.4%
- inhibition at 100 µM (A-375 [13]): 22.8%

Compound: CC(CCc1ccccc1)NCC(O)c1ccc(O)c(C(N)=O)c1 (configuration not stated) [LABETALOL]
- IC50 (A-375 [1]): > 100 µM
- IC50 (SK-MEL-28 [2]): > 100 µM
- IC50 (SK-MEL-5 [3]): > 100 µM
- inhibition at 100 µM (SK-MEL-28 [11]): 35.6%
- inhibition at 100 µM (SK-MEL-5 [12]): 36.2%
- inhibition at 100 µM (A-375 [13]): 38.1%

Compound: COCCc1ccc(OCC(O)CNC(C)C)cc1 (configuration not stated) [METOPROLOL]
- IC50 (A-375 [1]): > 100 µM
- IC50 (SK-MEL-28 [2]): > 100 µM
- IC50 (SK-MEL-5 [3]): > 100 µM
- inhibition at 100 µM (SK-MEL-28 [11]): 30%
- inhibition at 100 µM (SK-MEL-5 [12]): 38.8%
- inhibition at 100 µM (A-375 [13]): 26.3%

Compound: CC(C)NCC(O)c1ccc(NS(C)(=O)=O)cc1 (configuration not stated) [SOTALOL]
- IC50 (A-375 [1]): > 100 µM
- IC50 (SK-MEL-28 [2]): > 100 µM
- IC50 (SK-MEL-5 [3]): > 100 µM
- inhibition at 100 µM (SK-MEL-28 [11]): 7.4%
- inhibition at 100 µM (SK-MEL-5 [12]): 2.1%
- inhibition at 100 µM (A-375 [13]): 15.2%

Compound: CC(C)(C)NC[C@H](O)COc1nsnc1N1CCOCC1 [TIMOLOL]
- IC50 (A-375 [1]): > 100 µM
- IC50 (SK-MEL-28 [2]): > 100 µM
- IC50 (SK-MEL-5 [3]): > 100 µM
- inhibition at 100 µM (SK-MEL-28 [11]): 18.6%
- inhibition at 100 µM (SK-MEL-5 [12]): 33.3%
- inhibition at 100 µM (A-375 [13]): 22.7%

Compounds with a lower IC50 (A-375 [1]), results first:

- IC50 (A-375 [1]): 21.1 µM
- IC50 (SK-MEL-28 [2]): 19.7 µM
- IC50 (SK-MEL-5 [3]): 18.5 µM
Compound: COc1ccccc1OCCNCC(O)COc1ccc2ccccc2c1 (racemic)

- IC50 (A-375 [1]): 14.3 µM
- IC50 (SK-MEL-28 [2]): 15.3 µM
- IC50 (SK-MEL-5 [3]): 12.2 µM
Compound: OC(COc1ccc(-c2ccccc2)cc1)CN1CCN(c2ccccc2)CC1 (racemic)

- IC50 (A-375 [1]): 14.1 µM
- IC50 (SK-MEL-28 [2]): 14.2 µM
- IC50 (SK-MEL-5 [3]): 14.5 µM
Compound: Cc1ccc2cccc(NCC(O)COc3cccc4[nH]c5ccccc5c34)c2n1 (racemic)

- IC50 (A-375 [1]): 13 µM
- IC50 (SK-MEL-28 [2]): 15.6 µM
- IC50 (SK-MEL-5 [3]): 13.7 µM
Compound: COc1ccccc1OCCNCC(O)COc1cccc2[nH]c3ccccc3c12 (configuration not stated) [CARVEDILOL]
- inhibition (SK-MEL-28 [14]): Active

- IC50 (A-375 [1]): 8.37 µM
- IC50 (SK-MEL-28 [2]): 6.01 µM
- IC50 (SK-MEL-5 [3]): 5.86 µM
Compound: COc1ccccc1OCCNCC(O)COc1ccc(-c2ccccc2)cc1 (racemic)

- IC50 (A-375 [1]): 5.56 µM
- IC50 (SK-MEL-28 [2]): 3.8 µM
- IC50 (SK-MEL-5 [3]): 3.14 µM
Compound: OC(CNCc1ccc(-c2ccccc2)cc1)COc1cccc2[nH]c3ccccc3c12 (racemic)
- Ratio IC50 (SK-MEL-5 [4]): 15
- Activity (SK-MEL-28 [5]): Active
- Ratio IC50 (A-375 [6]): 15
- Ratio IC50 (SK-MEL-28 [7]): 15

- IC50 (A-375 [1]): 1.98 µM
- IC50 (SK-MEL-28 [2]): 3.3 µM
- IC50 (SK-MEL-5 [3]): 3.7 µM
- inhibition (Tubulin (Homo sapiens)): Active
Compound: OC(CNCc1ccc(-c2ccccc2)cc1)COc1cccc(Nc2ccccc2)c1 (racemic)
- Activity (SK-MEL-28 [8]): Dose-dependent effect
- Activity (SK-MEL-28 [5]): Active
- inhibition (INH) (SK-MEL-28 [9]): 100%
- Activity (SK-MEL-28 [10]): Dose-dependent effect
